Literature values in patent EP0417819A1, “Psycho-pharmacological peptides” (AKZO N.V., priority 1989, dated 1991).
Entries after “also recorded” stand apart in the source; their conditions may differ.

Test system: extinction of the (active) avoidance behaviour of rats
Settings: pole climbing test, state of the art, result in words

| Substance | extinction of the (active) avoidance behaviour |
| --- | --- |
| a-endorphin | inhibit the extinction of the avoidance behaviour; also recorded: retarded |
| met-enkephalin (YGGFM; Met-enkephalin; UniProt P01189 237-241, looked up) [smaller peptide fragment derived from β-endorphin] | inhibit the extinction of the avoidance behaviour |
| β-endorphin (YGGFMTSEKSQTPLVTLFKNAIIKNAYKKGE; Beta-endorphin; UniProt P01189 237-267, looked up) [(59-89) fragments of β-LPH] | delays the extinction |
| y-endorphin (YGGFMTSEKSQTPLVTL; Beta-endorphin; UniProt P01189 237-253, looked up, fragment) [β-endorphin (1-17)] | accelerate the extinction of the avoidance behaviour |
